Results as given in patent EP0429987B1, “5,11-Dihydro-6H-dipyrido[3,2-b:2',3'-e] [1,4]diazepines and their use in the prevention or treatment of HIV infection” (priority 1989, dated 1991).

molecular target: T1, HIV-1 RT (Human immunodeficiency virus type 1 group M subtype B, UniProt P03367); experiment: Reverse Transcriptase (RT) Assay: inhibition of RNA-dependent DNA polymerase activity; assay type: biochemical; conditions: @ 0.5µM
T1 construct: Reverse transcriptase enzyme from the LAV strain of Human Immunodeficiency Virus (HIV-1) (1) was isolated; made in house; host or cells: E. coli JM109, clone pBRTprtl+ in vector pIBI21 (lac promoter, IPTG induction)
From the text: Utilizing the Reverse Transcriptase (RT) Assay described below, compounds can be tested for their ability to inhibit the RNA-dependent DNA polymerase activity of HIV-1 RT.
Among the enzymes for which Human Immunodeficiency Virus (HIV-1) encodes is a reverse transcriptase (1), so-named because it transcribes a DNA copy from an RNA template. This activity can be quantitatively measured in a cell-free enzyme assay, which has been previously described (2), and is based upon the observation that reverse transcriptase is able to use a synthetic template [poly r(C) primed with oligo d(G)] to transcribe a radio-labelled, acid-precipitable DNA strand utilizing ^3H-dGTP as a substrate.
Reverse transcriptase enzyme from the LAV strain of Human Immunodeficiency Virus (HIV-1) (1) was isolated from the bacterial strain JM109 (3) expressing the DNA clone pBRTprtl+ (2) which is under the control of the lac promotor in the expression vector pIBI21 (4). An overnight culture grown in 2XYT medium (37°C, 225 rpm) (5) supplemented with 100 µg/ml ampicillin for positive selection is inoculated at a 1:40 dilution into M9 medium supplemented with 10µg/ml thiamine, 0.5% casamino acids, and 50 µg/ml ampicillin (5). The culture is incubated (37°C, 225 rpm) until it reaches an OD540 of 0.3-0.4. At that time the repressor inhibitor IPTG (isopropyl β-D-thiogalactopyranoside) is added to 0.5mM, and the mixture is incubated for 2 additional hours. Bacteria are pelleted, resuspended in a 50mM Tris, 0.6mM EDTA, 0.375M NaCl buffer and digested by the addition of lysozyme (1mg/ml) for 30 minutes on ice. The cells are lysed by the addition of 0.2% NP-40 and brought to 1M NaCl.
After removal of the insoluble debris by centrifugation, the protein is precipitated by the addition of 3 volumes of saturated aqueous ammonium sulfate. The enzyme is pelleted, resuspended in RT buffer (50mM Tris pH 7.5, 1mM EDTA, 5mM DTT, 0.1% NP-40, 0.1M NaCl, and 50% glycerol), and stored at -70°C for further use.
The 2X concentrated stock reaction mixture is aliquoted and stored at -20°C. […] This enzyme assay has been adapted to a 96 well microtiter plate system, and has been previously described (6). Tris buffer (50 mM, pH 7.4), vehicle (solvent diluted to match the compound dilution), or compounds in vehicle are dispensed into 96-well microtiter plates (10µl/well; 3 wells/ compound). The HIV-1 RT enzyme is thawed, diluted in 50mM Tris pH 7.4 so that fifteen µl of diluted enzyme contain 0.001 Unit (one unit is that amount of enzyme to transform 1 micromole of substrate per minute at 25°C), and fifteen µl are dispensed per well. Twenty µl of 0.12-0.5M EDTA are added to the first three wells of the microtiter plate. EDTA chelates the Mg^++ present and prevents reverse transcription. This group serves as background polymerization which is subtracted from all other groups. Twenty-five µl of the 2X reaction mixture are added to all wells and the assay is allowed to incubate at room temperature for 60 minutes. The assay is terminated by precipitating the DNA in each well with 50µl of 10% trichloracetic acid (TCA) (10% w/v) in sodium pyrophosphate (1% w/v). The microtiter plate is incubated for 15 minutes at 4°C and the precipitate is fixed onto #30 glass fiber paper (Schleicher & Schuell) using a Skatron semi-automatic harvester. The filters are then washed with additional TCA (5%) containing sodium pyrophosphate (1%), rinsed with aqueous ethanol (70%), dried, and transferred to scintillation vials (6). Each vial receives 2 mls of scintillation cocktail and is counted in a Beckman beta counter.
The calculation for percent inhibition is as follows: %inhibition =(CPM Mean Test Value - CPM Mean Control Value X100)/(CPM Mean Control Value) [formula]

Row | SMILES | inhibition at 0.5 µM
1 | CC(=O)N1C(=O)c2cccnc2N(C2CC2)c2nccc(C)c21 [Example 54] | 30%

same assay, conditions: @ 1µM (footnote *); read-out: RT Assay % inhibition

Row | SMILES | inhibition at 1 µM
2 | Cc1ccnc2c1N(O)C(=O)c1cccnc1N2C1CC1 [Example 4, 11-Cyclopropyl-5,11-dihydro-5-hydroxy-4-methyl-6H-dipyrido[3,2-b:2',3'-e][1,4]diazepin-6-one] | 36%
3 | CCN1c2ncccc2C(=O)N(C)c2cc(Cl)c([N+](=O)[O-])nc21 [Example 8] | 40%
4 | CCc1ccnc2c1NC(=O)c1cccnc1N2C1CCC1 [Example 9] | 75%
5 | CCc1ccnc2c1NC(=O)c1cccnc1N2C1CC1 [Example 11] | 76%
6 | CCN1c2ncccc2C(=O)Nc2c(C)cc(Cl)nc21 [Example 12] | 91%
7 | Cc1cc(Cl)nc2c1NC(=O)c1cccnc1N2C1CC1 [Example 13] | 90%
8 | CCN1c2ncc(N=[N+]=[N-])cc2C(=O)N(C)c2cccnc21 [Example 16] | 63%
9 | Cc1ccnc2c1N(C)C(=O)c1cccnc1N2C1CC1 [Example 19] | 50%
10 | O=C1Nc2cccnc2N(C2CCCC2)c2ncccc21 [Example 24] | 35%
11 | CCN1c2ncccc2C(=O)N(C)c2c(C)cc(N3CCCC3)nc21 [Example 25] | 94%
12 | CCN1c2ncccc2C(=O)N(C)c2ccc(N3CC=CC3)nc21 [Example 26] | 86%
13 | CCN1c2ncccc2NC(=O)c2c(C)cc(C)nc21 [Example 27] | 2%
14 | CN1C(=O)c2cccnc2N(C2CCCC2)c2ncccc21 [Example 28] | 34%
15 | O=C1Nc2c(Cl)ccnc2N(C2CC2)c2ncccc21 [Example 33] | 83%
16 | CCN1c2ncccc2C(=O)N(C)c2ccc(N(C)Cc3ccc(OC)cc3)nc21 [Example 36] | 64%
17 | C=CCNc1ccc2c(n1)N(CC)c1ncccc1C(=O)N2C [Example 37] | 70%
18 | O=C1Nc2c(CO)ccnc2N(C2CC2)c2ncccc21 [Example 38] | 34%
19 | Cc1ccnc2c1NC(=O)c1c(O)ccnc1N2C1CC1 [Example 41] | 32%

Row | SMILES | inhibition at 1 µM
20 | CN1C(=O)c2cccnc2N(C2CCCCC2)c2ncccc21 [Example 44] | 90%
21 | O=C1Nc2cccnc2N(C2CCCCC2)c2ncccc21 [Example 45] | 35%
22 | CCN1c2ncccc2C(=O)N(C)c2cc(Cl)c(N)nc21 [Example 49] | 52%
23 | C=CCN1C(=O)c2cccnc2N(C2CC2)c2nccc(C)c21 [Example 50] | 44%
24 | CCN1c2ncc(N)cc2C(=O)N(C)c2cc(N)cnc21 [Example 51] | 20%
25 | C=COC(=O)N1C(=O)c2cccnc2N(C2CC2)c2nccc(C)c21 [Example 52] | 72%
26 | CON1C(=O)c2cccnc2N(C2CC2)c2nccc(C)c21 [Example 53] | 17%
27 | CCN1c2ncccc2C(=O)N(C)c2ccc(NCc3ccc(OC)cc3)nc21 [Example 55] | 61%
28 | CCN1c2ncccc2C(=O)N(C)c2ccc(N3CCOCC3)nc21 [Example 56] | 68%
29 | CCN1c2ncccc2C(=O)N(C)c2ccc(N3CCCCC3)nc21 [Example 57] | 66%
30 | CN(C)CCN1C(=O)c2cccnc2N(C2CC2)c2ncccc21 [Example 59] | 8%
31 | CCN1c2ncccc2C(=O)N(C)c2ccc(N(C)C)nc21 [Example 60] | 90%
32 | CCNc1ccc2c(n1)N(CC)c1ncccc1C(=O)N2C [Example 61] | 75%
33 | CCN1c2ncc([N+](=O)[O-])cc2C(=O)N(C)c2cccnc21 [Example 62] | 0%
34 | CCN1c2nc(N(C)C)ccc2NC(=O)c2cccnc21 [Example 63] | 98%
35 | CCN1c2ncccc2C(=O)Nc2c1nc(N1CCCC1)c(Cl)c2C [Example 64] | 94%
36 | CCN1c2ncc(N)cc2C(=O)N(C)c2cccnc21 [Example 65, 8-Amino-5,11-dihydro-11-ethyl-5-methyl-6H-dipyrido[3,2-b:2',3'-e] [1,4]diazepin-6-one hemihydrate] | 82%

same assay, conditions: @ 1.25µM (footnote +)

Row | SMILES | inhibition at 1.25 µM
37 | N#Cc1ccnc2c1NC(=O)c1cccnc1N2C1CC1 [Example 58] | 37%

same assay, conditions: read-out: RT Assay % inhibition

Row | SMILES | inhibition at 1 µM
38 | Cc1cc(C)c2c(n1)N(C1CC1)c1ncccc1C(=O)N2 [Example 10] | 85%
39 | CCN1c2ncc([N+](=O)[O-])cc2C(=O)N(C)c2cc([N+](=O)[O-])cnc21 [Example 39] | 0%
40 | CCN1c2ncc([N+](=O)[O-])cc2C(=O)N(C)c2cc(Cl)c([N+](=O)[O-])nc21 [Example 40] | 0%
41 | Cc1ccnc2c1NC(=S)c1cccnc1N2C1CC1 [Example 42, 5,11 Dihydro-6H-11-cyclopropyl-4-methyl-dipyrido[3,2-b:2',3'-e][1,4]diazepin-6-thione] | 90%
42 | CCN1c2ncccc2C(=NOC)Nc2c(C)cc(C)nc21 [Example 67, 5,11-Dihydro-11-ethyl-6-methoxyimino-2,4-dimethyl-6H-dipyrido[3,2-b:2',3'-e][1,4]diazepine] | 88%

same assay, conditions: read-out: RT Assay % inhibition @ 10 µg/ml

Row | SMILES | inhibition at 10 µg/mL
43 | CCN1c2ncccc2C(=O)Nc2c(C(F)(F)F)cc(C)nc21 [Example 1, 5,11-Dihydro-11-ethyl-2-methyl-4-trifluoromethyl-6H-dipyrido-[3,2-b:2',3'-e][1,4]diazepin-6-one] | 100%
44 | CN1C(=O)c2cccnc2N(C(C)(C)C)c2ncccc21 [Example 15] | 87%
45 | CC(C)N1c2ncccc2NC(=O)c2cccnc21 [Example 17] | 99%
46 | O=C1Nc2cccnc2N(C2CC2)c2ncccc21 [Example 18] | 99%
47 | CN1C(=O)c2cccnc2N(CC2CC2)c2ncccc21 [Example 20] | 93%
48 | CC[C@@H](C)N1c2ncccc2NC(=O)c2cccnc21 [Example 21] | 85%
49 | CCN1c2ncccc2C(=O)N(C)c2cc(C)c(C)nc21 [Example 22] | 100%
50 | CC[C@H](C)N1c2ncccc2NC(=O)c2cccnc21 [Example 23] | 88%
51 | COCN1C(=O)c2cccnc2N(COC)c2nccc(C)c21 [Example 29] | 0%
52 | CCN1c2ncccc2C(=O)Nc2c(C(F)(F)F)cc(Cl)nc21 [Example 30] | 100%
53 | O=C1Nc2cccnc2N(C2CCC2)c2ncccc21 [Example 31] | 99%
54 | CN1C(=O)c2cccnc2N(C2CCC2)c2ncccc21 [Example 32] | 100%
55 | COc1ccnc2c1NC(=O)c1cccnc1N2C1CC1 [Example 35] | 91%
56 | CN1C(=O)c2cccnc2N(C#N)c2ncccc21 [Example 43] | 44%
57 | CCN1c2ncccc2NC(=O)c2c1nc(C)c(Cl)c2C [Example 46] | 44%
58 | CN1C(=O)c2cccnc2N(S(C)(=O)=O)c2ncccc21 [Example 48] | 77%
59 | CCN1c2ncccc2C(=NC#N)Nc2c(C)cc(C)nc21 [Example 66, 6-Cyanoimino-5,11-dihydro-11-ethyl-2,4-dimethyl-6H-dipyrido[3,2-b:2',3'-e][1,4]diazepine] | 100%
